As usually defined, the IC50 is the point on the concentration scale where inhibition reaches its midpoint.

The record followed here is article PMC4323178 (Journal of thrombosis and haemostasis : JTH, 2011).

What all share (conditions): SEM
Assay [1] addresses DR0301 (Homo sapiens, UniProt P01903+P01911, A100K/A102G/A103R/A169T/F55Y/I96L/K41T/L162R/M171V/P40S/Q125H/Q178H/Q39Y/R42S/S66N/T106N/W38E/Y61H). It is filed as binding.
Assay [2] has as its target HLA-DR0101 (Homo sapiens, UniProt P01903+P01911, A100R/D57E/F55L/F60I/F76Y/I96L/L162R/M171V/P40L/Q125E/R42F/V115G/Y59C). In words: biochemical.
The target in assay [3] is DR1501 (Homo sapiens, UniProt P01903+P01911). It is filed as binding.

In the case of `CC[C@H](C)[C@H](NC(=O)[C@H](CC(N)=O)NC(=O)[C@@H](N)CCC(=O)O)C(=O)N[C@@H](CCC(N)=O)C(=O)N[C@@H](CCCNC(=N)N)C(=O)N[C@@H](Cc1ccccc1)C(=O)N[C@@H](CC(C)C)C(=O)N1CCC[C@H]1C(=O)N[C@@H](CC(N)=O)C(=O)N1CCC[C@H]1C(=O)N[C@@H](C)C(=O)NCC(=O)N[C@H](C(=O)N[C@@H](CCC(N)=O)C(=O)N[C@@H](CC(C)C)C(=O)N[C@@H](CCC(=O)O)C(=O)N[C@@H](CC(=O)O)C(=O)N1CCC[C@H]1C(=O)N[C@@H](CCC(=O)O)C(=O)N[C@@H](Cc1ccccc1)C(=O)O)C(C)C` [FVIII589–608], inhibition in assay [1] was half-maximal at 50 ± 4 µM (IC50).
For the molecule `CC[C@H](C)[C@H](NC(=O)[C@H](CC(N)=O)NC(=O)[C@H](CCC(=O)O)NC(=O)[C@@H](NC(=O)[C@H](CC(C)C)NC(=O)[C@H](Cc1ccc(O)cc1)NC(=O)[C@H](Cc1c[nH]c2ccccc12)NC(=O)[C@H](CO)NC(=O)[C@H](CCCNC(=N)N)NC(=O)[C@H](CC(N)=O)NC(=O)[C@@H](N)CCC(=O)O)[C@@H](C)O)C(=O)N[C@@H](CCC(N)=O)C(=O)N[C@@H](CS)C(=O)N[C@@H](Cc1ccccc1)C(=O)N[C@@H](CC(C)C)C(=O)N1CCC[C@H]1C(=O)N[C@@H](CC(N)=O)C(=O)N1CCC[C@H]1C(=O)N[C@@H](C)C(=O)NCC(=O)O` [FVIII581–600,593C], the values for the half-maximal inhibitory concentration (IC50) in assay [2] and in assay [3] were 50 ± 3 µM and 56 ± 4 µM, respectively.
